# Measurements: patent US8008542B2, “Compositions, cells, and plants that include BKI1, a negative regulator of BRI1-mediated BR signaling” (The Salk Institute for Biological Studies, priority 2007, dated 2011)
# B1: BKI1 fused with GAL4-AD (BKI1-pEXAD502), full-length BKI1 (other, not shown: large carriers)
# chain: METNLQQVKNSSQTFSEKQNPKQEASPSPISSTCSSPSHDFSFTISLQPLSSSSKHISPTLRSPSKTTSSYQQTDPFAVDLSPADEIFFHGHLLPLHLLSHLPVSPRTSTGSYNDGFTLPVKDILPDQPTNNNNNTENAITNISTEAKDDNTEDKAEGEIRVKTKPIKSFSLFGLSKWRKGFESNEREQEQQQQKIKKPMSLDLSHAVKKYIRMLFQKRGNGTQFWNRRQTSSYSFSSSLMGPNGNSKTMINGSYNKRDLIRGRRGELFSAPASMRTSPTNSGHLRVSTAGLSSSSGSTSSSSSDSTMEELQAAIQAAIAHCKNSSAVDRDDKVKDS
# notes: Yeast two-hybrid prey; it is put N-terminal here; also called BKI1-FL; At5g42750
# What was measured:
# DWF4 = test: qRT-PCR of brassinosteroid-regulated gene DWF4; format: in vivo, Arabidopsis; details: 100 nM BL for 2.5 hrs
# Experimental: (§1) Plants were treated with 100 nM BL, or a mock treatment for 2.5 hrs. Total RNA was extracted using a Qiagen RNAeasy kit (Valencia, Calif.), and the first strand cDNA was synthesized using Invitrogen Superscript III First-Strand cDNA Synthesis kit. cDNAs were combined with SYBR master mix for PCR. Primers for each gene are shown as follows. CPD (At5g05690): 5′-TTACCGCAAAGCCATCCAA-3′ (SEQ ID NO:10) and 5′-[…]-3′ (SEQ ID NO:11); DWF4 (At3g50660): 5′-[…]-3′ (SEQ ID NO:12) and 5′-[…]-3′ (SEQ ID NO:13); Saur-AC1 (At4g38850): 5′-[…]-3′ (SEQ ID NO:14) and 5′-[…]-3′ (SEQ ID NO:15); and BKI1: 5′-GCTCCGGCGTCGATGA-3′ (SEQ ID NO:16) and 5′-[…]-3′ (SEQ ID NO:17). A U-box gene (At5g15400) was used to normalize the data (5′-[…]-3′ (SEQ ID NO:18) and 5′-TGCTGCCCAACATCAGGTT-3′ (SEQ ID NO:19)). PCR reactions were performed in triplicate or quadruplicate with a Bio-Rad iCycler, and the data were collected and analyzed with Bio-Rad MyiQ Single-Color Real-Time PCR Detection System.
# BES1 = BES1 phosphorylation status by immunoblot with anti-BES1; format: in vivo, Arabidopsis
# Experimental: To determine whether the growth inhibitory effect caused by the over-expression of BKI1-YFP was due to an inhibition of BRI1 signaling, we tested the phosphorylation status of a downstream biochemical marker, BES1 (10), by immunoblot analysis.
# Seedlings were grown in short day photoperiods for seven days. At least ten short-day grown seedlings were measured. In FIGS. 2A-B the pBKI1::GUS line was used as a control (control). RNAi-2 and RNAi-7 were two independent RNAi knockdown lines for BKI1. In FIG. 2 C-E, phenotype of plants overexpressing BKI1-FLAG, with Col-0 (left) and a BKI1-FLAG line (right) are shown. 2C. Short-day grown seedlings. 2D. Long-day grown seedlings. 2E. Long-day grown adult plants. In FIG. 2F, leaf morphology of seedlings grown in short days. Col-0 (right) and a BKI1-FLAG line (left) are shown. In FIG. 2G, over-expression of BKI1-YFP leads to a reduced response (hypocotyl length) to BL. At least twenty short-day grown seedlings were measured. In FIG. 2H, over-expression of BKI1-YFP leads to an enhanced response to BRZ220. At least twenty dark-grown seedlings were measured. In FIG. 2I, over-expression of BKI1-YFP results in reduced accumulation of dephosphorylated BES1. Immunoblots with anti-BES1 show levels of phosphorylated BES1 (pBES1) and dephosphorylated BES1. Bottom band: loading control. In FIG. 2J, Over-expression of BKI1-YFP alters the expression of BR-regulated genes. […]
# Saur-AC1 = test: qRT-PCR of brassinosteroid-regulated gene Saur-AC1; format: in vivo, Arabidopsis; details: Plus BL (100 nM, 2.5 hrs)
# Experimental: as §1
# Arabidopsis seedlings = test: Hypocotyl length response to BL, short-day grown seedlings; format: in vivo
# [1] = system: plasma membrane-association of BKI1-YFP; test: Subcellular localization of BKI1-YFP in root tip cells (confocal); format: cell-based, Arabidopsis; details: for plasma membrane-association of BKI1-YFP following BL treatment: wild-type background, grown on 1 μM BRZ220, treated with 1 μM BL
# Experimental: To investigate where in the pathway BKI1 acts, we examined the subcellular localization of the BKI1-YFP fusion protein in plants. BKI1-YFP was localized to both the plasma membrane and the cytosol in root tip cells (FIG. 3A). When the BKI1-YFP line was grown on medium containing 1 μM BRZ220, which reduces the levels of endogenous brassinosteroids (22), the fluorescent signal on the cell surface was enhanced (FIG. 3B).
# In FIG. 3A, BKI1-YFP is localized to the plasma membrane and cytosol on MS medium. In FIG. 3B, BRZ220 enhances the association of BKI1-YFP to the plasma membrane. Seedlings were grown on MS medium containing 1 μM BRZ220. In FIG. 3C, BL enhances BKI1-YFP dissociation from the plasma membrane. Seedlings were grown on MS medium containing 1 μM BL. […] Seedlings were grown on MS medium containing 1 μM of BRZ220 and treated with 1 μM BL. J-L. BKI1-YFP is associated with the plasma membrane in bri1-116. Seedlings were grown on MS medium containing 1 μM of BRZ220. bri1-116 is a null allele of BRI1 (19). […] Seedlings were grown on MS medium containing 1 μM BL. […] Seedlings were grown on MS medium containing 1 μM BRZ220. 3D, G, J, M, and P are untreated; E, H, K, N, and Q are treated with BL for 5 min, and F, I, L, O, and R are treated with BL for 10 min.
# Seedlings were grown on MS medium containing 1 μM of BRZ220. The time of BL treatment is indicated. Top panels: BKI1-YFP; Lower panels: myriBKI1-YFP. […] Immunoblots with anti-GFP show levels of myriBKI1-YFP and BKI1-YFP. Bottom band: loading control. […] The total ^35S-Met labeled BRI1-KD-HIS co-precipitated by GST-BAK1-KD was defined as “1”. Five replicates were conducted. Error bars indicate standard error. 1, GST-BAK1-KD±35S-BRI1-KD-HIS; 2, GST-BAK1-KD+35S-BRI1-KD-HIS+10 μM of MBP; 3, GST-BAK1-KD+35S-BRI1-KD-HIS+10 μM of MBP-BKI1. […] Without BL, BRI1 kinase is kept in a basal state by both its own carboxyl terminal domain and by an interaction with BKI1. Brassinosteroid binding to the extracellular domain of BRI1 induces a conformational change of the kinase domain, leading to the phosphorylation of the C-terminal domain of BRI1 and BKI1, the dissociation of BKI1 from the plasma membrane, and the release of autoinhibition of BRI1. These events lead to the full activation of BRI1 and its association with BAK1 or other substrates. Plasma membrane-dissociated BKI1 may also regulate other unknown components in the brassinosteroid signaling cascade. BSU1 is a nuclear serine/threonine phosphatase involved in the dephosphorylation of BES1 (27).
# The predicted full-length BKI1 was amplified by RT-PCR from total RNA of Col-0 using Pfu DNA polymerase (Stratagene), and cloned into the binary vector pCHF3 that contains a 35S promoter (10), three copies of FLAG ([…], SEQ ID NO:8) fused at the Cterminal end, and the RubisCo small subunit (rbcS) terminator. For the YFP fusion construct, full length BKI1 was cloned into a modified pCHF3 containing a 35S promoter and a C-terminal YFP tag. For the myriBKI1-YFP construct, a myristoylation site (MGICMSR, SEQ ID NO:9) was added to the N-terminus of BKI1-YFP via PCR. All constructs were confirmed by sequencing and transformed into Col-0 plants. The subcellular localization of BKI1-YFP and myriBKI1-YFP was visualized and photographed using a Leica TCS SP2 confocal microscope (Leica Microsystems, Germany).
# CPD = test: qRT-PCR of brassinosteroid-regulated gene CPD; format: in vivo, Arabidopsis; details: 100 nM BL for 2.5 hrs
# Experimental: as §1
# [2] = biological target: T1, kinase domain of NIK1 (NIK1-KD) in pDBLeu (GAL4-DB fusion) (UniProt P04386 1-147; Q9LFS4 270-638, limits assumed); test: yeast two-hybrid
# T1 construct: domain: GAL4-DB;domain: kinase domain; Yeast two-hybrid bait
# [3] = biological target: full-length BIN2 in pDBLeu (GAL4-DB fusion) (UniProt P04386 1-147; Q39011 1-380); test: yeast two-hybrid
# [4] = biological target: T2, CLV1 kinase domain (CLV1-KD) fused with GAL4-DB (in pDBLeu) (UniProt P04386 1-147; Q9SYQ8 660-980, limits assumed); test: yeast two-hybrid
# T2 construct: domain: GAL4-DB;domain: kinase domain; Yeast two-hybrid bait
# [5] = biological target: T3, BRL3 kinase domain (BRL3-KD) fused with GAL4-DB (in pDBLeu) (UniProt P04386 1-147; Q9LJF3 794-1164, limits assumed); test: yeast two-hybrid
# T3 construct: domain: GAL4-DB;domain: kinase domain; Yeast two-hybrid bait
# [6] = biological target: T4, BRL1 kinase domain (BRL1-KD) fused with GAL4-DB (in pDBLeu) (UniProt P04386 1-147; Q9ZWC8 798-1166, limits assumed); test: yeast two-hybrid
# T4 construct: domain: GAL4-DB;domain: kinase domain; Yeast two-hybrid bait
# [7] = biological target: T5, kinase domain of BAK1 (BAK1-KD) in pDBLeu (GAL4-DB fusion) (UniProt P04386 1-147; Q94F62 247-615, limits assumed); test: yeast two-hybrid
# T5 construct: domain: GAL4-DB;domain: kinase domain; Yeast two-hybrid bait
# [8] = biological target: full length TTL in pDBLeu (GAL4-DB fusion) (Arabidopsis, UniProt P04386 1-147; Q9LVM5 1-324, limits assumed); test: yeast two-hybrid
molecule,measurement,setting,value
"CC(C)[C@H](C)[C@@H](O)[C@H](O)[C@@H](C)[C@H]1CC[C@H]2[C@@H]3COC(=O)[C@H]4C[C@H](O)[C@H](O)C[C@]4(C)[C@H]3CC[C@]12C [BL, brassinolide]","expression of DWF4 (RNA level, WT without BL = 1.00)",DWF4; BKI1-YFP line,0.80±0.06
same,"expression of DWF4 (RNA level, WT without BL = 1.00)",DWF4; WT,0.27±0.01
same,accumulation of dephosphorylated BES1,"BES1; det2-1, 0.1 μM BL for one hour",strongly stimulated
same,accumulation of dephosphorylated BES1,"BES1; wild type, 0.1 μM BL for one hour",strongly stimulated
same,"expression of Saur-AC1 (RNA level, WT without BL = 1.00)",Saur-AC1; BKI1-YFP line,1.65±0.11
same,"expression of Saur-AC1 (RNA level, WT without BL = 1.00)",Saur-AC1; WT,4.68±0.31
same,response to BL treatment (hypocotyl length),Arabidopsis seedlings; det2-1 brassinosteroid biosynthetic mutant,highly responsive
same,sensitivity to BL applications compared to wild type (fold less sensitive),"Arabidopsis seedlings; plants over-expressing BKI1-YFP, hypocotyl length",at least 100 fold
same,BL-induced dissociation of BKI1-YFP from the plasma membrane,[1]; bri1-104 (kinase inactive allele),no BL-induced dissociation
same,BL-induced dissociation of BKI1-YFP from the plasma membrane,[1]; bri1-116 homozygous seedlings (null allele),failed to induce the dissociation
same,plasma membrane-association of BKI1-YFP,[1]; grown on medium containing 1 μM BL,reduced
same,plasma membrane-association of BKI1-YFP following BL treatment,[1]; 10 minutes,undetectable
same,plasma membrane-association of BKI1-YFP following BL treatment,[1]; after 5 minutes,almost completely gone
same,"expression of CPD (RNA level, WT without BL = 1.00)",CPD; BKI1-YFP line,0.83±0.05
same,"expression of CPD (RNA level, WT without BL = 1.00)",CPD; WT,0.47±0.03
B1,binding result,[2],no binding
same,binding result,[3],no binding
same,binding result,[4],no binding
same,binding result,[5],no binding
same,binding result,[6],no binding
same,binding result,[7],no binding
same,binding result,[8],no binding
